Laboratory results: paper PMC4883017 (Molecular pharmaceutics, 2015)

What was measured:
HIV-1ADA [1] = assay: Reverse transcriptase inhibition in HIV-1 infected MDM; format: cell-based; conditions: total NRTI concentration 4 μg/mL, Day 10
HepG2 cells = conditions: human, 10 days, 30 μg/mL
[2] = cited from earlier work
HIV-1ADA [3] = assay: Antiviral activity in vivo, humanized PBL-NSG mouse model of HIV-1 infection; set-up: species or system hu-PBL NSG mice; conditions: three i.v. injections over 15 days, Day 15
[4] = Pharmacokinetics after i.v. injection; format: in vivo; conditions: plasma, Balb/c mice, means ± SD

Q: For Cc1cn([C@H]2C[C@H](N=[N+]=[N-])[C@@H](CO)O2)c(=O)[nH]c1=O [AZT, Zidovudine], which “10-fold virus inhibition in the infected MDM at fixed concentration” value (HIV-1ADA [1]) is on record?
A: Its value is “achieved only after the treatment with nanodrugs”.

Q: And the “Drop of the mtDNA amount” value (HepG2 cells)?
A: The value was 60%.

Q: What about the “Administered drug removed with urine” value [2] of the same compound?
A: Its value is “more than 90%”.

Q: And the “Reduction of the virus level per lymphocyte (p24/CD45)” value (HIV-1ADA [3])?
A: The value was “three-fold reduction”.

Q: What about the “AUC 0-τ” value [4] of the same compound?
A: Its value is 22896 ± 85 ng·h/mL.

Q: And the “AUC 0-∞” value [4]?
A: The value was 88404 ± 786 ng·h/mL.

Q: And the CL [4]?
A: The CL was 3.81 ± 0.17 mL/h.
